According to patent US20100004171A1, “Therapeutic Methods for Neuropathic Pain” (priority 2006, published 2010):

What was measured:
agrin mRNA = experiment: RT-PCR of agrin gene expression (C-terminal primers) in L3-5 spinal cord; type: in vivo, rat
Description: Gene expression alterations after the nerve injury: Gene expression for amino(“N”)- and carboxy(“C”)-terminal halves of agrin was analyzed from L3-5 spinal cord of the rats (sacrificed at 2 hr, 24 hr, 3 days, and 7 days post surgery), using RT-PCR and real-time PCR. The differences in gene expression between sham-operated and nerve-injured groups were compared.
Total RNA extraction: The rats were deeply anesthetized with isoflurane and decapitated. The spinal cord from L3-5 was quickly removed and immediately put into a tube containing TRIzol® (2 ml, Invitrogen, Carlsbad, Calif.). The tissue was homogenized with IKA® T8 homogenizer (IKA®, Staufen, Germany) for 2 min, allowed to stand at room temperature for 3 min, and 0.4 ml chloroform added. The tube was vortexed and centrifuged at 12,000×g for 15 min. The water phase was transferred to a clean tube without any contamination from other phases. Then 1 ml isopropanol was added to the water phase, and the mixture allowed to stand for 10 min at room temperature. The tube was centrifuged for 10 min at 12,000×g. The supernatant was discarded, and the pellet washed with 1 ml 70% ethanol. The ethanol was discarded, and the RNA was re-dissolved in 30 μl nucleotide-free water. A 1 μl aliquot was taken and reserved to dilute 20-fold for RNA quality control. […]
[…]. Changes in agrin gene induced by the injected drug was analyzed and compared.

[1] = Solubility for intrathecal injection; type: physicochemical
Description: The maximum volume injected at any one time was 10 μl.^[79]

[2] = test system: tactile allodynia in allodynic rats; experiment: Tactile allodynia test (von Frey filaments, paw withdrawal threshold) in CCI (Bennett model) rats; type: in vivo, rat; conditions: for effect on tactile allodynia: day 7 after injury
rodents = conditions: orally to rodents, 3.7 mmol/kg to 36 mmol/kg; cited from earlier work
[3] = test system: cultured human hepatocytes; conditions: 100 μM; cited from earlier work
nociceptive pain = conditions: cited from earlier work
[4] = test system: Bennett model rats with hyperalgesia and allodynia; conditions: intrathecally, 30 nmol/kg; cited from earlier work

## O=C(CN1C(=O)c2ccccc2S1(=O)=O)Nc1ccc(O)cc1 [SCP-1]
Agrin mRNA; allodynic rats, intrathecal injection 7 days post injury, one- and two-hour post injection
  agrin mRNA: increased
Agrin mRNA; pre-emptive intrathecal injection prior to CCI, 3 and 7 days post-injury
  agrin mRNA: did not show a decrease in agrin mRNA
[1]; 45% cyclodextrin in saline, 10 mM solutions prepared
  solubility in 45% 2-hydroxypropyl-α-cyclodextrin in saline: can dissolve them
[1]; water
  solubility in water: do not dissolve readily in water
[2]; Example 9: SCP-1 alone
  duration of suppressive effect: at least 4 hr
[2]; intrathecal 1 nmol
  effect on tactile allodynia: did not affect tactile allodynia
[2]; intrathecal 10 nmol
  effect on tactile allodynia: did not affect tactile allodynia
[2]; intrathecal 50 nmol
  effect on tactile allodynia: only a mild effect
[2]; intrathecal 100 nmol
  withdrawal threshold at 2 hr post-injection: 27.3 ± 2.5 g
[2]; intrathecal 100 nmol, basal threshold 4.6±1.1 g
  withdrawal threshold at 90 min after injection: 28 ± 2.4 g
[2]; intrathecal 200 nmol
  effect on tactile allodynia: suppressed the tactile allodynia
[2]; pre-emptive intrathecal 100 nmol in 10 μl saline immediately prior to CCI, 0, 3, 7 days
  effect on tactile allodynia (paw withdrawal threshold): prevented
[2]; pre-emptive intrathecal 100 nmol prior to CCI
  duration of prevention of tactile allodynia: up to 7 days
[2]; pre-emptive intrathecal 100 nmol prior to CCI, 7 days after injury
  effect on paw withdrawal threshold at 7 days: remained strong
rodents
  toxicity after oral dosing: the animals were still moving normally
[3]
  apoptosis: did not induce apoptosis
Nociceptive pain; formalin- and CFA-induced, rodent models, without any toxicity
  effect on nociceptive pain: suppressed formalin- and CFA-induced nociceptive pain
Nociceptive pain; while relieving nociceptive pain
  acute liver or kidney toxicity: without acute liver or kidney toxicity
[4]
  effect on allodynia and hyperalgesia: depressed the signs of allodynia and hyperalgesia
